We go through six compounds from patent US20260347353A1, “INDOLIZINE DERIVATIVES FOR TREATING CANCER” (Antares Therapeutics, Inc., priority 2022, published 2026).

The subject of one assay is NUGC3 cells (p53 Y220C). The assay can be described thus: Cell Proliferation Assay (CellTiter-Glo), NUGC3 p53 Y220C. As to conditions: Homo sapiens, NUGC-3, 120 h, 5 days, read-out: CTG NUGC3 P53 Y220C IC50. Type of assay: cell-based. An outline of the steps:
(§1)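 Seeded at 250–500 cells/well, then compound-treated for 5 days; the NCIH1299 lines carry Tet-One inducible p53 Y220C or R273H transduced lentivirally. Viability by CellTiter-Glo luminescence after 10 min at room temperature; IC50 calculated.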

The test system of assay [1] is NCIH1299-inducible p53 R273H cells. The assay can be described thus: Cell Proliferation Assay (CellTiter-Glo), NCIH1299-inducible p53 R273H. As to conditions: Homo sapiens, NCI-H1299, 120 h, 5 days, read-out: CTG H1299 P53 R273H IC50. Type of assay: cell-based. The procedure: Inducible p53 Y220C and R273H constructs (Tet-One inducible expression system; Takara) were stably expressed in NCIH1299 cells by lentiviral transduction. NUGC3, A549, BxPC3, T3M4, HuH7, HCC2935, MFE296, NCIH1299, NCIH1299-inducible p53 Y220C, and NCIH1299-inducible p53 R273H cell lines were used for cell proliferation assay. 250-500 cells were seeded in each well of 384 plate and then compounds were dispensed into each well using Echo or Tecan. After 5 days of incubation, equal volume of CellTiter-Glo reagent (G7570; Promega) was added into each well and the plate was incubated at room temperature for 10 minutes with shaking. The luminescent signal was measured by PheraStar microplate reader and IC50 was calculated.
(Cellular ATP, detected with luciferase, serves as a proxy for viable cell number.)

Assay [2] has as its target T1, p53 Y220C mutant protein (amino acid residues 94-293) (Homo sapiens, UniProt P04637, Y220C).
T1 construct: p53 Y220C mutant protein (amino acid residues 94-293)
The assay can be described thus: Thermal Shift Assay (TSA), p53 Y220C dTM. Type of assay: binding. The procedure:
[…] The volume is 5 μL/well. The sealed plate is then loaded onto a QuantStudio 7 Flex instrument for melting temperature (TM) measurement. The temperature is increased from 30 °C to 50 °C, at a rate of 0.03 °C/second. Data are fit into a Boltzmann two-state model to determine the TM.

The test system of assay [3] is NCIH1299-inducible p53 Y220C cells. The assay can be described thus: Cell Proliferation Assay (CellTiter-Glo), NCIH1299-inducible p53 Y220C. Type of assay: cell-based. As to conditions: Homo sapiens, NCI-H1299, 120 h, 5 days, read-out: CTG H1299 P53 Y220C IC50. The essentials:
as §1

The target of the next assay is p53 Y220C (Homo sapiens, UniProt P04637, Y220C). The assay can be described thus: Luciferase Reporter Assay, p53 Y220C (NCIH1299 cells with inducible p53 Y220C and p53 response element-luciferase). Type of assay: cell-based. The settings on record: 6 hour compound treatment, read-out: Luc P53 Y220C AC50. The essentials:
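NCI-H1299 cells stably carrying a p53 response element-luciferase reporter and Tet-inducible p53 Y220C were induced with 0.5 ug/mL doxycycline for 24 h, then treated with compound for 6 h. Luminescence was read after One-Glo addition. AC50 was derived relative to 10 uM tool compound as positive control.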
On the technique in general: A reporter such as luciferase makes a cellular process visible.

Assay [4] concerns the target T1, p53 Y220C mutant protein (amino acid residues 94-293). The assay can be described thus: Surface Plasmon Resonance (SPR) assay, p53 Y220C Kd_kinetic. The settings on record: multi-cycle kinetics, 16 or 20 °C, pH 7.5, 1:1 binding model. An outline of the steps: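 Kd from multi-cycle SPR kinetics fitted to a 1:1 model, using 2-fold, 7-point compound series over p53 Y220C (residues 94-293). Flow 30 μL/min, 60 s association, 120 s dissociation, at 16 or 20 °C in 50 mM Tris pH 7.5, 100 mM NaCl, 1 mM DTT, 0.01% Brij35, 0.05% Tween-20, 1% DMSO.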

Molecules are shown by their SMILES. Where only a bound is given, the exact number is not on record here.

Consider `CN1CC[C@@H](Nc2cccn3c(SC(F)(F)F)c(-c4noc(CNC(=O)C5CC5)n4)nc23)[C@@H](F)C1` [Example 1, N-{[3-(8-{[(3S,4R)-3-fluoro-1-methylpiperidin-4-yl]amino}-3-[(trifluoromethyl)sulfanyl]imidazo[1,2-a]pyridin-2-yl)-1,2,4-oxadiazol-5-yl]methyl}cyclopropanecarboxamide], for which the IC50 (as a rule, the midpoint of a concentration-inhibition curve) is ≥ 3000 nM with NUGC3 cells (p53 Y220C), ≥ 10000 nM in assay [1] and ≥ 3000 nM in assay [3]. For the same compound, in assay [2] (10 uM compound), the ΔTm – broadly, the change in melting temperature against a reference sample – at 10 µM fell in the range of 5 to 10 °C. Besides, the ΔTm at 100 µM in assay [2] (100 μM compound, 3 hours at 20 °C, pH 7.4) was 5 to 10 °C. Besides, the AC50 (commonly the midpoint of the concentration-response curve, whichever way the signal moves) at p53 Y220C is ≥ 3000 nM. The Kd – broadly, the concentration at which binding is half-saturated – in assay [4] lay in the range of 10 to 100 nM.

Regarding `C[C@@H](O)CC(=O)NCc1nc(-c2cc3c(N[C@@H]4CCN(C)C[C@@H]4F)cccn3c2SC(F)(F)F)no1` [Example 63, (3R)-N-{[3-(8-{[(3S,4R)-3-fluoro-1-methylpiperidin-4-yl]amino}-3-[(trifluoromethyl)sulfanyl]indolizin-2-yl)-1,2,4-oxadiazol-5-yl]methyl}-3-hydroxybutanamide], the IC50 was 1500 to 3000 nM in the assay with NUGC3 cells (p53 Y220C) and ≥ 3000 nM in assay [3]. Further, the AC50 at p53 Y220C was 1500 to 3000 nM. In assay [4], the Kd was < 10 nM.

In the case of `C[C@H](O)CC(=O)NCc1nc(-c2cc3c(N[C@@H]4CCN(C)C[C@@H]4F)cccn3c2SC(F)(F)F)no1` [Example 64, (3S)—N-{[3-(8-{[(3S,4R)-3-fluoro-1-methylpiperidin-4-yl]amino}-3-[(trifluoromethyl)sulfanyl]indolizin-2-yl)-1,2,4-oxadiazol-5-yl]methyl}-3-hydroxybutanamide], the IC50 (with NUGC3 cells (p53 Y220C); in assay [3]) was ≥ 3000 nM each time. For the same compound, the AC50 on p53 Y220C is ≥ 3000 nM. The Kd in assay [4] lay within 10 to 100 nM.

Turning to `CN1CC[C@@H](Nc2cccn3c(SC(F)(F)F)c(-c4noc(CNC(=O)CC(C)(C)O)n4)cc23)[C@@H](F)C1` [Example 65, N-{[3-(8-{[(3S,4R)-3-fluoro-1-methylpiperidin-4-yl]amino}-3-[(trifluoromethyl)sulfanyl]indolizin-2-yl)-1,2,4-oxadiazol-5-yl]methyl}-3-hydroxy-3-methylbutanamide], the IC50 (in the assay with NUGC3 cells (p53 Y220C); in assay [3]) was ≥ 3000 nM each time. For the same compound, the AC50 at p53 Y220C is ≥ 3000 nM. The Kd in assay [4] was 10 to 100 nM.

For `CN1CC[C@@H](Nc2cccn3c(SC(F)(F)F)c(-c4noc(CNC(=O)c5cnc(N6CCOCC6)o5)n4)cc23)[C@@H](F)C1` [Example 66, N-{[3-(8-{[(3S,4R)-3-fluoro-1-methylpiperidin-4-yl]amino}-3-[(trifluoromethyl)sulfanyl]indolizin-2-yl)-1,2,4-oxadiazol-5-yl]methyl}-2-(morpholin-4-yl)-1,3-oxazole-5-carboxamide], the IC50 (with NUGC3 cells (p53 Y220C); in assay [3]) was < 750 nM each time. Further, the AC50 at p53 Y220C was < 750 nM. Also, the Kd in assay [4] is < 10 nM.

Consider `CN1CC[C@@H](Nc2cccn3c(SC(F)(F)F)c(-c4noc(CNC(=O)N5CCOCC5)n4)cc23)[C@@H](F)C1` [Example 67, N-{[3-(8-{[(3S,4R)-3-fluoro-1-methylpiperidin-4-yl]amino}-3-[(trifluoromethyl)sulfanyl]indolizin-2-yl)-1,2,4-oxadiazol-5-yl]methyl}morpholine-4-carboxamide], for which the values for the IC50 (with NUGC3 cells (p53 Y220C); in assay [3]) were 1500 to 3000 nM and 750 to 1500 nM, respectively. In addition, at p53 Y220C, the half-maximal activity concentration (AC50) is 750 to 1500 nM. Also, the Kd in assay [4] is < 10 nM.
